Drawing on PubChem BioAssay AID1794802 (Yongcheng Song lab at Baylor College of Medicine, 2022), this text covers EC50 for ten compounds.

This assay relates to Molm13 AML cells, XTT viability. The assay can be described thus: growth inhibition of Molm13 leukemia cells, dose response, AHD inhibitor project, cell-based, XTT viability (AID 1794802). In general terms: Tetrazolium dyes change colour on reduction, which living cells bring about.

SMILES strings stand for the structures. Active and inactive are the calls of the source.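 The calls were made as follows: active = EC50 under 50 µM in a live-cell viability test; inactive = the rest.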

Usually EC50 stands for the concentration needed to bring the measured effect to its halfway point. `O=C(NCC1CCNCC1)c1coc2cc(-c3ccc(N4CCCCC4)cc3)ccc12`: the EC50 is 13 µM.
The value for `NC(=O)c1ccc(-c2ccc3cc(C(=O)NCC4CCNCC4)sc3c2)cc1` was > 51 µM (inactive); that for `NCc1ccc(-c2ccc3cc(C(=O)NCC4CCNCC4)oc3c2)cc1` was > 51 µM (inactive).
The same measure for `O=C(NCC1CCNCC1)c1cc2ccc(-c3ccc(N4CCCCC4)cc3)cc2s1`: 4.7 µM; for `O=C(NCC1CCNCC1)c1cc2cc(-c3cn[nH]c3)ccc2[nH]1`: > 51 µM (inactive); for `O=C(NCC1CCNCC1)c1cc2cc(-c3ccc(N4CCCCC4)cc3)ccc2[nH]1`: 10 µM.
The same measure for `O=C(NCC1CCNCC1)c1cc2ccc(-c3ccc(N4CCCC4)cc3)cc2s1`: 9.4 µM.
Regarding `O=C(NCC1CCNCC1)c1c[nH]c2cc(-c3ccc(N4CCCCC4)cc3)ccc12`, the EC50 was 29 µM.
The same measure for `O=C(NCC1CCNCC1)c1c[nH]c2cc(-c3ccc(N4CCCC4)cc3)ccc12`: 50 µM; for `O=C(NCC1CCNCC1)c1cc2cc(-c3ccc(N4CCCCC4)cc3)ccc2s1`: 5.1 µM.
